In the NIST ThermoML archive (doi:10.1016/j.jct.2016.02.009):

Assay: molar heat capacity at constant pressure
Settings: 101.33 kPa, Small (less than 1 g) adiabatic calorimetry

CCCCCCCCCCCCCCCCn1cc[n+](C)c1.O=S(=O)([N-]S(=O)(=O)C(F)(F)F)C(F)(F)F
Settings | molar heat capacity at constant pressure [J/K/mol]
5 K, Crystal 2 | 3.58
5.4 K, Crystal 2 | 4.43
5.7 K, Crystal 2 | 5.11
6.07 K, Crystal 2 | 6
6.51 K, Crystal 2 | 7.15
7.03 K, Crystal 2 | 8.58
7.55 K, Crystal 2 | 10.13
8.08 K, Crystal 2 | 11.79
8.61 K, Crystal 2 | 13.56
9.15 K, Crystal 2 | 15.43
9.69 K, Crystal 2 | 17.38
10 K, Crystal 2 | 18.51
10.24 K, Crystal 2 | 19.41
10.84 K, Crystal 2 | 21.73
11.53 K, Crystal 2 | 24.47
12.23 K, Crystal 2 | 27.33
12.92 K, Crystal 2 | 30.31
13.62 K, Crystal 2 | 33.36
14.33 K, Crystal 2 | 36.54
15 K, Crystal 2 | 39.66
15.04 K, Crystal 2 | 39.85
15.87 K, Crystal 2 | 43.67
16.8 K, Crystal 2 | 48.11
17.74 K, Crystal 2 | 52.48
18.67 K, Crystal 2 | 56.86
19.62 K, Crystal 2 | 61.3
20 K, Crystal 2 | 63.15
20.86 K, Crystal 2 | 67.23
22.4 K, Crystal 2 | 74.52
23.97 K, Crystal 2 | 81.98
25 K, Crystal 2 | 86.78
25.53 K, Crystal 2 | 89.27
27.13 K, Crystal 2 | 96.62
28.72 K, Crystal 2 | 103.9
30 K, Crystal 2 | 109.7
30.29 K, Crystal 2 | 111.1
32.02 K, Crystal 2 | 118.8
33.92 K, Crystal 2 | 126.8
35 K, Crystal 2 | 131.4
35.82 K, Crystal 2 | 134.8
37.72 K, Crystal 2 | 142.5
39.62 K, Crystal 2 | 150
40 K, Crystal 2 | 151.7
41.61 K, Crystal 2 | 158
43.71 K, Crystal 2 | 166.2
45 K, Crystal 2 | 171.3
45.8 K, Crystal 2 | 174.3
47.91 K, Crystal 2 | 182.4
50 K, Crystal 2 | 190
50.02 K, Crystal 2 | 190.2
52.13 K, Crystal 2 | 197.8
54.23 K, Crystal 2 | 205.2
56.35 K, Crystal 2 | 212.4
58.48 K, Crystal 2 | 219.5
60 K, Crystal 2 | 224.6
60.6 K, Crystal 2 | 226.5
62.72 K, Crystal 2 | 233.3
64.85 K, Crystal 2 | 240.1
66.98 K, Crystal 2 | 246.6
69.1 K, Crystal 2 | 253.2
70 K, Crystal 2 | 255.9
71.33 K, Crystal 2 | 259.9
73.67 K, Crystal 2 | 266.6
76.02 K, Crystal 2 | 273.4
78.38 K, Crystal 2 | 280
80 K, Crystal 2 | 284.5
80.57 K, Crystal 2 | 286.3
80.73 K, Crystal 2 | 286.6
82.48 K, Crystal 2 | 291.2
83.09 K, Crystal 2 | 292.8
84.4 K, Crystal 2 | 296.1
86.33 K, Crystal 2 | 301.2
88.27 K, Crystal 2 | 306.3
90 K, Crystal 2 | 310.8
90.22 K, Crystal 2 | 311.2
92.18 K, Crystal 2 | 316.2
94.15 K, Crystal 2 | 321.1
96.13 K, Crystal 2 | 326.1
98.11 K, Crystal 2 | 331
100 K, Crystal 2 | 335.5
100.1 K, Crystal 2 | 335.8
102.15 K, Crystal 2 | 340.8
104.27 K, Crystal 2 | 345.7
106.4 K, Crystal 2 | 350.6
108.54 K, Crystal 2 | 355.4
110 K, Crystal 2 | 358.8
110.68 K, Crystal 2 | 360.3
112.83 K, Crystal 2 | 365
114.99 K, Crystal 2 | 369.8
117.15 K, Crystal 2 | 374.5
119.31 K, Crystal 2 | 379.2
120 K, Crystal 2 | 380.5
121.48 K, Crystal 2 | 383.7
123.65 K, Crystal 2 | 388.2
125.82 K, Crystal 2 | 392.8
128 K, Crystal 2 | 397.3
130 K, Crystal 2 | 401.4
130.17 K, Crystal 2 | 401.7
132.35 K, Crystal 2 | 406.2
134.53 K, Crystal 2 | 410.6
136.71 K, Crystal 2 | 415
138.9 K, Crystal 2 | 419.3
140 K, Crystal 2 | 421.7
141.08 K, Crystal 2 | 423.7
143.27 K, Crystal 2 | 428.1
145.46 K, Crystal 2 | 432.5
147.65 K, Crystal 2 | 436.9
149.84 K, Crystal 2 | 441.2
150 K, Crystal 2 | 441.5
152.03 K, Crystal 2 | 445.6
154.22 K, Crystal 2 | 449.8
156.4 K, Crystal 2 | 454.1
158.59 K, Crystal 2 | 458.5
160 K, Crystal 2 | 461.2
160.78 K, Crystal 2 | 462.8
162.97 K, Crystal 2 | 467.2
165.16 K, Crystal 2 | 471.4
167.34 K, Crystal 2 | 475.7
169.53 K, Crystal 2 | 479.8
170 K, Crystal 2 | 480.8
171.71 K, Crystal 2 | 484.1
173.9 K, Crystal 2 | 488.4
176.08 K, Crystal 2 | 492.8
178.26 K, Crystal 2 | 497.1
180 K, Crystal 2 | 500.5
180.45 K, Crystal 2 | 501.5
182.63 K, Crystal 2 | 505.9
184.82 K, Crystal 2 | 510.1
187 K, Crystal 2 | 514.3
189.17 K, Crystal 2 | 518.6
190 K, Crystal 2 | 520.4
191.35 K, Crystal 2 | 523.1
193.52 K, Crystal 2 | 527.5
195.69 K, Crystal 2 | 531.7
197.86 K, Crystal 2 | 536.3
200 K, Crystal 2 | 540.8
200.02 K, Crystal 2 | 540.9
202.25 K, Crystal 2 | 545.6
204.54 K, Crystal 2 | 550.5
206.82 K, Crystal 2 | 555.5
209.11 K, Crystal 2 | 560.4
210 K, Crystal 2 | 562.3
211.39 K, Crystal 2 | 565.4
213.67 K, Crystal 2 | 570.5
215.95 K, Crystal 2 | 575.6
218.21 K, Crystal 2 | 580.9
220 K, Crystal 2 | 585
220.48 K, Crystal 2 | 586.3
222.74 K, Crystal 2 | 591.8
225 K, Crystal 2 | 597.1
227.25 K, Crystal 2 | 602.4
229.5 K, Crystal 2 | 607.7
230 K, Crystal 2 | 609.3
231.74 K, Crystal 2 | 613.5
233.97 K, Crystal 2 | 619.4
236.21 K, Crystal 2 | 625.3
238.43 K, Crystal 2 | 631.2
240 K, Crystal 2 | 635.6
240.65 K, Crystal 2 | 637.6
242.87 K, Crystal 2 | 643.5
245.08 K, Crystal 2 | 650
247.28 K, Crystal 2 | 657
249.47 K, Crystal 2 | 663.5
250 K, Crystal 2 | 665.4
251.67 K, Crystal 2 | 671.1
253.85 K, Crystal 2 | 678.2
256.03 K, Crystal 2 | 685.8
258.19 K, Crystal 2 | 693.5
260 K, Crystal 2 | 700.6
260.35 K, Crystal 2 | 701.7
262.5 K, Crystal 2 | 710.5
264.64 K, Crystal 2 | 719.9
266.77 K, Crystal 2 | 729.9
268.89 K, Crystal 2 | 740.5
270 K, Crystal 2 | 745.5
271 K, Crystal 2 | 751.1
273.1 K, Crystal 2 | 761.1
275.18 K, Crystal 2 | 773.4
277.25 K, Crystal 2 | 786.9
279.3 K, Crystal 2 | 801
280 K, Crystal 2 | 806.6
281.34 K, Crystal 2 | 816.9
283.37 K, Crystal 2 | 834.5
285.38 K, Crystal 2 | 853.3
287.36 K, Crystal 2 | 875.7
289.32 K, Crystal 2 | 901.5
290 K, Crystal 2 | 909.7
291.26 K, Crystal 2 | 930.9
293.07 K, Crystal 2 | 958.5
293.16 K, Crystal 2 | 965
293.61 K, Crystal 2 | 968.5
294.12 K, Crystal 2 | 978.5
294.63 K, Crystal 2 | 990.3
295.02 K, Crystal 2 | 1004
295.14 K, Crystal 2 | 1002
295.64 K, Crystal 2 | 1014
296.14 K, Crystal 2 | 1027
296.64 K, Crystal 2 | 1039
296.85 K, Crystal 2 | 1050
297.14 K, Crystal 2 | 1053
297.63 K, Crystal 2 | 1068
298.11 K, Crystal 2 | 1082
298.15 K, Crystal 2 | 1084
298.6 K, Crystal 2 | 1098
298.63 K, Crystal 2 | 1103
299.08 K, Crystal 2 | 1113
299.55 K, Crystal 2 | 1129
300 K, Crystal 2 | 1146
300.03 K, Crystal 2 | 1146
300.36 K, Crystal 2 | 1161
300.49 K, Crystal 2 | 1161
300.96 K, Crystal 2 | 1177
301.42 K, Crystal 2 | 1193
301.88 K, Crystal 2 | 1207
302.1 K, Crystal 2 | 1219
302.34 K, Crystal 2 | 1222
302.79 K, Crystal 2 | 1235
303.24 K, Crystal 2 | 1248
303.69 K, Crystal 2 | 1253
303.84 K, Crystal 2 | 1262
304.13 K, Crystal 2 | 1267
304.58 K, Crystal 2 | 1271
305.02 K, Crystal 2 | 1273
305.47 K, Crystal 2 | 1274
305.5 K, Crystal 1 | 1274
305.5 K, Crystal 2 | 1274
305.56 K, Crystal 1 | 1278
305.91 K, Crystal 1 | 1275
306.36 K, Crystal 1 | 1271
306.8 K, Crystal 1 | 1269
307.24 K, Crystal 1 | 1268
307.28 K, Crystal 1 | 1272
307.69 K, Crystal 1 | 1266
308.14 K, Crystal 1 | 1261
308.58 K, Crystal 1 | 1257
309.01 K, Crystal 1 | 1254
309.03 K, Crystal 1 | 1251
309.48 K, Crystal 1 | 1242
309.93 K, Crystal 1 | 1229
310 K, Crystal 1 | 1229
310.39 K, Crystal 1 | 1187
310.81 K, Crystal 1 | 1097
310.86 K, Crystal 1 | 1054
311.36 K, Crystal 1 | 989.7
311.88 K, Crystal 1 | 984.4
312.39 K, Crystal 1 | 986.1
312.73 K, Crystal 1 | 995.5
312.9 K, Crystal 1 | 992
313.41 K, Crystal 1 | 997.9
313.91 K, Crystal 1 | 1011
314.42 K, Crystal 1 | 1032
314.68 K, Crystal 1 | 1051
316.51 K, Crystal 1 | 1261
319.25 K, Crystal 1 | 1044
319.25 K, Liquid | 972
320 K, Liquid | 972
320.76 K, Liquid | 972.6
321.02 K, Liquid | 972.6
322.55 K, Liquid | 974.4
322.92 K, Liquid | 974.4
324.34 K, Liquid | 976.2
324.82 K, Liquid | 975.6
326.13 K, Liquid | 977.9
326.72 K, Liquid | 977.3
327.92 K, Liquid | 978.5
328.62 K, Liquid | 979.7
329.71 K, Liquid | 980.3
330 K, Liquid | 981
330.52 K, Liquid | 981.4
331.5 K, Liquid | 982
332.43 K, Liquid | 982.6
333.29 K, Liquid | 983.8
334.33 K, Liquid | 984.4
335.08 K, Liquid | 985.6
336.23 K, Liquid | 986.1
336.87 K, Liquid | 986.7
338.13 K, Liquid | 988.5
338.66 K, Liquid | 989.1
340 K, Liquid | 990
340.03 K, Liquid | 990.3
340.45 K, Liquid | 990.3
341.93 K, Liquid | 991.4
342.24 K, Liquid | 992
343.84 K, Liquid | 993.8
344.04 K, Liquid | 993.2
345.74 K, Liquid | 995
345.83 K, Liquid | 995
347.62 K, Liquid | 997.3
347.64 K, Liquid | 996.7
349.41 K, Liquid | 998.5
349.55 K, Liquid | 999.7
350 K, Liquid | 1000
351.2 K, Liquid | 1000
351.45 K, Liquid | 1001
353 K, Liquid | 1003
353.35 K, Liquid | 1003
354.79 K, Liquid | 1004
355.25 K, Liquid | 1006
356.58 K, Liquid | 1007
357.16 K, Liquid | 1007
358.37 K, Liquid | 1009
359.06 K, Liquid | 1009
360 K, Liquid | 1010
360.16 K, Liquid | 1011
360.96 K, Liquid | 1011
361.95 K, Liquid | 1013
362.86 K, Liquid | 1013
363.74 K, Liquid | 1014
364.75 K, Liquid | 1015
365.52 K, Liquid | 1016
366.65 K, Liquid | 1018
367.31 K, Liquid | 1018
368.55 K, Liquid | 1020
370 K, Liquid | 1022
